Measurements from ChEMBL document CHEMBL4312023, “Design of novel monoamine oxidase-B inhibitors based on piperine scaffold: Structure-activity-toxicity, drug-likeness and efflux transport studies” (Eur J Med Chem, 2020).

Legend:
[1] = biological target: T1, Amine oxidase [flavin-containing] B (Homo sapiens, UniProt P27338); assay: Inhibition of human microsomal MAO-B expressed in baculovirus infected BTI-TN-5B1-4 cells assessed as reduction in 4-hydroxyquinoline formation at 10 uM using kynuramine as substrate preincubated with substrate for 10 mins followed by enzyme addition by spectrophotometric analysis; conditions: BTI-TN-5B1-4, human
T1 sequence (P27338 whole entry): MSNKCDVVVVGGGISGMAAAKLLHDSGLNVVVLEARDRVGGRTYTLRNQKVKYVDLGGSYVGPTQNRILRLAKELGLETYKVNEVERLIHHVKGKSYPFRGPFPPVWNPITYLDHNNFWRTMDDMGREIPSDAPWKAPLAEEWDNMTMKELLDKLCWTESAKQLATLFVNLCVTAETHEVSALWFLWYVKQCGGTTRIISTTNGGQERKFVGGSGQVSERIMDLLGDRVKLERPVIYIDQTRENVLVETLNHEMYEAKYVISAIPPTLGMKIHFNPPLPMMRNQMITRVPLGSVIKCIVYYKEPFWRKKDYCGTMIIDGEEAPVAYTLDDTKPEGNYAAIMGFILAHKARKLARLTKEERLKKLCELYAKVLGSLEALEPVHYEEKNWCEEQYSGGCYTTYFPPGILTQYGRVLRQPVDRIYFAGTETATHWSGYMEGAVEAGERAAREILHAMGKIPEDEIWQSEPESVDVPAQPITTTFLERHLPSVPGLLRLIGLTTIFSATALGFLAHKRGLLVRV

[2] = biological target: T2, Amine oxidase [flavin-containing] A (Homo sapiens, UniProt P21397); conditions: BTI-TN-5B1-4, human, read-out: INH
T2 sequence (P21397 whole entry): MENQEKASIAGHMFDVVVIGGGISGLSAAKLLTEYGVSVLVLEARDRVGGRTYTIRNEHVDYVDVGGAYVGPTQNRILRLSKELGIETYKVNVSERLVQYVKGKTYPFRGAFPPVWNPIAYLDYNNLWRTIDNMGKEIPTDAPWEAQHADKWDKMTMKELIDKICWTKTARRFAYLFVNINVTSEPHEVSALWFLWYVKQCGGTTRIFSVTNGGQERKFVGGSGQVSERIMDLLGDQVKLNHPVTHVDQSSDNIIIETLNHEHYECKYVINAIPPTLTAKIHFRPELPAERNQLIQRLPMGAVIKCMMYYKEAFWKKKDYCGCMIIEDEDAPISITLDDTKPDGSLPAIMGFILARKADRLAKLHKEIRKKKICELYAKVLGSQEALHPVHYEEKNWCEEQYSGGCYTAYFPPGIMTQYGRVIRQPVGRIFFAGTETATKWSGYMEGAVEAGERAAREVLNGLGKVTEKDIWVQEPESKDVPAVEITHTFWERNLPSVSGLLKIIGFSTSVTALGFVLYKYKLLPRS
Description: Inhibition of human microsomal MAO-A expressed in baculovirus infected BTI-TN-5B1-4 cells assessed as reduction in 4-hydroxyquinoline formation at 10 uM using kynuramine as substrate preincubated with substrate for 10 mins followed by enzyme inhibition by spectrophotometric analysis

[3] = biological target: T1, Amine oxidase [flavin-containing] B; assay: Reversible inhibition of human microsomal MAO-B expressed in baculovirus infected BTI-TN-5B1-4 cells assessed as 4-hydroxyquinoline formation using kynuramine as substrate incubated up to 140 mins by spectrophotometric analysis; conditions: bti-tn-5b1-4, 140 min
[4] = Cytotoxicity against human SH-SY5Y cells assessed as cellular metabolic activity by measuring resazurin reduction at 10 to 50 uM incubated for 24 hrs followed by incubation with resazurin for 2 hrs by fluorescence based assay (reference value: >85%); format: ADME, cell-based; conditions: SH-SY5Y cells, read-out: Activity
[5] = biological target: T3, ATP-dependent translocase ABCB1 (Homo sapiens, UniProt P08183); assay: (§1) Inhibition of P-gp in human Caco2 cells assessed as decrease in Rho123 efflux by measuring decrease in ratio between fluorescence intensity of Zos-inhibited Rho123 accumulation and fluorescence intensity of non-inhibited Rho123 accumulation at 10 uM using Rho123 as substrate preincubated for 30 mins in presence of 5 uM P-gp inhibitor, Zos followed by incubation with Rhodamine 123 for 90 mins by fluorescence spectroscopy analysis; format: cell-based; conditions: 1.5 h
T3 sequence (P08183 whole entry): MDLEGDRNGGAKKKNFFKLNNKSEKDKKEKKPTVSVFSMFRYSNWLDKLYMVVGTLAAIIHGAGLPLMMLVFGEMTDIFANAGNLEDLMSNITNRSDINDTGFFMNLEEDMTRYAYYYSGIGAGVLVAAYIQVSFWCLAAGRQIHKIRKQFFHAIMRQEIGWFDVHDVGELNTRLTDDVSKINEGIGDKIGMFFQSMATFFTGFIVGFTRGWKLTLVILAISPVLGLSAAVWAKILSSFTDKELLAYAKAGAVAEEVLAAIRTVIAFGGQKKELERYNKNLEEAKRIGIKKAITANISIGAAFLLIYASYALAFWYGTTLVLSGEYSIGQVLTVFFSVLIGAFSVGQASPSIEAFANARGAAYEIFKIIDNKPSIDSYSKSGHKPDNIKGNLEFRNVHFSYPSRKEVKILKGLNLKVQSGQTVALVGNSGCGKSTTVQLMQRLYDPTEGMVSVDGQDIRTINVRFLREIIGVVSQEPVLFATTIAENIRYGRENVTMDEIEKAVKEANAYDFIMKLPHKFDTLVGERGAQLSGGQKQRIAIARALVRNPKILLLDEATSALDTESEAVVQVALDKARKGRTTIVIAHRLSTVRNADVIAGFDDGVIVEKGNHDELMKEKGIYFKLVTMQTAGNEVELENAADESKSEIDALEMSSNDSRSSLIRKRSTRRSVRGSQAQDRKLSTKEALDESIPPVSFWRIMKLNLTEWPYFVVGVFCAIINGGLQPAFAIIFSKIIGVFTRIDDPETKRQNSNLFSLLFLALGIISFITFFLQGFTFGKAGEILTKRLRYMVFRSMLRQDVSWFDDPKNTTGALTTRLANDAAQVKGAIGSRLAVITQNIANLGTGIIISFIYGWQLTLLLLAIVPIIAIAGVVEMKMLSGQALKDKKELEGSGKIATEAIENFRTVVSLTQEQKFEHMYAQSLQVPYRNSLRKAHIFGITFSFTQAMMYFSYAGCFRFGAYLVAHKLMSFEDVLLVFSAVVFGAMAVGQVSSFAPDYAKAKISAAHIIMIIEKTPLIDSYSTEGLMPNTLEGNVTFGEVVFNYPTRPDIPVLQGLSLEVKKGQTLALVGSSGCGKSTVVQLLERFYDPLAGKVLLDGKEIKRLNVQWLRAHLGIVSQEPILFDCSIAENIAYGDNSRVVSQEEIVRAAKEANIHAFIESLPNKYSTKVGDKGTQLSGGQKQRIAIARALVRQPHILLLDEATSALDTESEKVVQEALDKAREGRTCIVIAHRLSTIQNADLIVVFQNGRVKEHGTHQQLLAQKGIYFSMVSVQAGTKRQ

[6] = Cytotoxicity against human Caco2 cells assessed as cellular metabolic activity by measuring resazurin reduction at 10 to 50 uM incubated for 24 hrs followed by incubation with resazurin for 1 hr by fluorescence based assay (reference value: >85%); format: ADME, cell-based; conditions: Caco-2 cells, read-out: Activity
[7] = Cytotoxicity against human SH-SY5Y cells assessed as lysosomal activity by measuring neutral red uptake at 10 to 50 uM incubated for 24 hrs followed by incubation with neutral red solution for 2 hrs by microplate reader analysis (reference value: >85%); format: cell-based; conditions: SH-SY5Y cells, read-out: Activity
[8] = biological target: T1, Amine oxidase [flavin-containing] B; assay: Competitive inhibition of human microsomal MAO-B expressed in baculovirus infected BTI-TN-5B1-4 cells assessed as constant Vmax using kynuramine as substrate preincubated with substrate at varying concentrations for 10 mins followed by enzyme addition by Lineweaver-Burk plot analysis
[9] = Chromatographic hydrophobicity index of compound at 250 uM at pH 7.4 by HPLC analysis; format: ADME; conditions: pH 7.4, 250 µM
[10] = Chromatographic hydrophobicity index, log D of compound at 250 uM at pH 7.4 by HPLC analysis; format: physicochemical; conditions: buffer
[11] = Cytotoxicity against human Caco2 cells assessed as lysosomal activity by measuring neutral red uptake at 10 to 50 uM incubated for 24 hrs followed by incubation with neutral red solution for 1 hr by microplate reader analysis (reference value: >85%); format: cell-based; conditions: Caco-2 cells, read-out: Activity
[12] = species: Homo sapiens; assay: Selectivity index, ratio of IC50 for human microsomal MAO-A expressed in baculovirus infected […] cells to IC50 for human microsomal MAO-B expressed in baculovirus infected […] cells using kynuramine as substrate
[13] = biological target: T3, ATP-dependent translocase ABCB1; assay: as §1, with “Induction of” for “Inhibition of”, “Rho123 intracellular accumulation” for “Rho123 efflux”, “measuring increase” for “measuring decrease”; format: cell-based; conditions: 1.5 h
[14] = biological target: T1, Amine oxidase [flavin-containing] B; assay: biochemical; format: cell-based, BTI-TN-5B1-4
Description: Inhibition of human microsomal MAO-B expressed in baculovirus infected BTI-TN-5B1-4 cells assessed as reduction in 4-hydroxyquinoline formation using kynuramine as substrate preincubated with substrate for 10 mins followed by enzyme addition by spectrophotometric analysis

[15] = biological target: T2, Amine oxidase [flavin-containing] A; assay: biochemical
Description: Inhibition of human microsomal MAO-A expressed in baculovirus infected BTI-TN-5B1-4 cells assessed as reduction in 4-hydroxyquinoline formation using kynuramine as substrate preincubated with substrate for 10 mins followed by enzyme addition by spectrophotometric analysis

[16] = biological target: T1, Amine oxidase [flavin-containing] B; assay: Competitive inhibition of human microsomal MAO-B expressed in baculovirus infected BTI-TN-5B1-4 cells assessed as increase in substrate Km using kynuramine as substrate preincubated with substrate at varying concentrations for 10 mins followed by enzyme addition by Lineweaver-Burk plot analysis
[17] = Retention time of compound at pH 7.4 by LC-UV analysis; format: physicochemical; conditions: buffer
[18] = biological target: T1, Amine oxidase [flavin-containing] B; assay: Competitive inhibition of human microsomal MAO-B expressed in baculovirus infected BTI-TN-5B1-4 cells assessed as inhibition constant using kynuramine as substrate preincubated with substrate at varying concentrations for 10 mins followed by enzyme addition by Lineweaver-Burk plot analysis
[19] = Cytotoxicity against human SH-SY5Y cells assessed as cellular metabolic activity by measuring resazurin reduction at 50 uM incubated for 24 hrs followed by incubation with resazurin for 2 hrs by fluorescence based assay (reference value: >85 %); format: ADME, cell-based; conditions: read-out: Activity
[20] = Solubility of compound in sodium phosphate buffer at >10 uM at pH 7.4; format: physicochemical
[21] = Cytotoxicity against human SH-SY5Y cells assessed as lysosomal activity by measuring neutral red uptake at 50 uM incubated for 24 hrs followed by incubation with neutral red solution for 2 hrs by microplate reader analysis (reference value: >85%); format: cell-based; conditions: read-out: Activity

Row | Compound | inhibition at 10 µM [2] [%] | CHI [9] | Ratio IC50 [12] | IC50 [14] [nM] | Retention_time [17] [min] | other results
1 | N#C/C(=C\C=C\c1ccc2c(c1)OCO2)C(=O)Nc1ccccc1 | < 50 | – | – | – | – | inhibition at 10 µM [1]: < 50%
2 | O=C(O)/C=C/C=C/c1ccc2c(c1)OCO2 [PIPERIC ACID] | < 50 | – | – | – | – | inhibition at 10 µM [1]: < 50%
3 | C[C@H](NCc1ccc(OCc2cccc(F)c2)cc1)C(N)=O [SAFINAMIDE] | – | – | – | – | – | inhibition (INH) [3]: Active
4 | O=C(/C=C/C=C/c1ccc2c(c1)OCO2)OCc1ccccc1 | – | 102.14 | 25 | 167 | 12.46 | viability at 24 h, up to 50 µM [4]: > 85%; inhibition (INH) [5]: Not Active; viability at 24 h, up to 50 µM [6]: > 85%; viability at 24 h [7]: > 85%; inhibition (INH) [8]: Active; chromatographic logD at 250 µM [10]: 3.9; viability at 24 h [11]: > 85%; Activity [13]: Not Active; IC50 [15]: 4240 nM; inhibition (INH) [16]: Active; Ki [18]: 75 nM
5 | N#C/C(=C\C=C\c1ccc2c(c1)OCO2)C(=O)NCc1ccccc1 | < 50 | – | > 21 | 471 | – | –
6 | O=C(/C=C/C=C/c1ccc2c(c1)OCO2)OCCc1ccccc1 | < 50 | – | > 22 | 448 | – | –
7 | N#C/C(=C\C=C\c1ccc2c(c1)OCO2)C(=O)Oc1ccccc1 | < 50 | – | > 47 | 215 | – | –
8 | CC(=O)Nc1ccc(O)cc1 [ACETAMINOPHEN] | – | 20.59 | – | – | 7.45 | –
9 | N#C/C(=C\C=C\c1ccc2c(c1)OCO2)C(=O)O | < 50 | – | – | – | – | inhibition at 10 µM [1]: < 50%
10 | O=C(/C=C/C=C/c1ccc2c(c1)OCO2)Nc1ccccc1 | < 50 | – | – | – | – | inhibition at 10 µM [1]: < 50%
11 | COc1cc2c(c(OC)c1OC)-c1ccc(OC)c(=O)cc1[C@@H](NC(C)=O)CC2 [COLCHICINE] | – | 44.32 | – | – | 8.35 | –
12 | O=C(/C=C/C=C/c1ccc2c(c1)OCO2)Oc1ccccc1 | – | – | > 64 | 156 | – | viability at 24 h, 50 µM [19]: 79.7%; solubility [20]: Insoluble; viability at 24 h, 50 µM [21]: 59.4%
13 | CCCC(=O)c1ccccc1 [BUTYROPHENONE] | – | 88.49 | – | – | 11.32 | –
14 | Cn1c(=O)c2[nH]cnc2n(C)c1=O.O [THEOPHYLLINE] | – | 18.19 | – | – | 7.31 | –
